In the supplement of paper PMC10307832:

Columns and labels:
Assay in all cases: relative viability (nuclei count vs DMSO), 5 days (fraction); higher = more cells survive
[1] = compound: C1=CC=C(C(=C1)C2=CC=C(C=C2)C3=CSC4=C3C(=C(C(=O)N4)C#N)O)O + CC(C)C[C@H](NC(=O)[C@H](Cc1ccccc1)NC(=O)c1cnccn1)B(O)O [Bortezomib] (partner 0.002 µM)
How it was run: (§1)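 Relative viability equals treated-well nuclei counts divided by vehicle-well nuclei counts. Counts came from 4× images of lung cancer cell lines grown in 1536-well plates for 5 days after pin-tool dosing on the day after seeding. Dosing used one drug alone or a fixed anchor-drug dose plus five library-drug doses (not always all listed) in √10 steps, and values are medians of duplicate plates.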

[2] = compound: C1=CC=C(C(=C1)C2=CC=C(C=C2)C3=CSC4=C3C(=C(C(=O)N4)C#N)O)O + C[C@@H](Oc1cc(-c2cnn(C3CCNCC3)c2)cnc1N)c1c(Cl)ccc(F)c1Cl [Crizotinib] (partner 1 µM)
How it was run: as §1

TGX 221 + Decitabine = compound: CC1=CN2C(=O)C=C(N=C2C(=C1)C(C)NC3=CC=CC=C3)N4CCOCC4 [TGX 221] + Nc1ncn([C@H]2C[C@H](O)[C@@H](CO)O2)c(=O)n1 [Decitabine] (partner 2 µM)
How it was run: as §1

[3] = compound: O=C(CCCCCCNC(=O)c1cnc(N(c2ccccc2)c2ccccc2)nc1)NO [Ricolinostat] + CCNC(=O)c1noc(-c2cc(C(C)C)c(O)cc2O)c1-c1ccc(CN2CCOCC2)cc1 [Luminespib] (partner 0.01 µM)
How it was run: as §1

Row | Cell Line | relative viability ([1]; first compound 0.08 µM) | relative viability ([1]; first compound 0.253 µM) | relative viability ([1]; first compound 0.8 µM) | relative viability ([1]; first compound 2.53 µM) | relative viability ([1]; first compound 8 µM) | relative viability ([2]; first compound 0.08 µM) | relative viability ([2]; first compound 0.253 µM) | relative viability ([2]; first compound 0.8 µM) | relative viability ([2]; first compound 2.53 µM) | relative viability ([2]; first compound 8 µM) | relative viability (TGX 221 + Decitabine; first compound 0.08 µM) | relative viability (TGX 221 + Decitabine; first compound 0.253 µM) | relative viability (TGX 221 + Decitabine; first compound 0.8 µM) | relative viability (TGX 221 + Decitabine; first compound 2.53 µM) | relative viability (TGX 221 + Decitabine; first compound 8 µM) | relative viability ([3]; first compound 0.08 µM) | relative viability ([3]; first compound 0.253 µM) | relative viability ([3]; first compound 0.8 µM) | relative viability ([3]; first compound 2.53 µM)
1 | NCI-H727 | 0.643 | 1.18 | 0.986 | 0.714 | 0.747 | 0.701 | 0.961 | 0.864 | 0.995 | 0.756 | 0.826 | 0.822 | 0.796 | 0.864 | 0.915 | 0.314 | 0.283 | 0.236 | 0.379
2 | NCI-H838 | 0.776 | 0.816 | 1.03 | 0.715 | 0.634 | 0.639 | 1.08 | 0.892 | 0.794 | 0.732 | 0.443 | 0.448 | 0.462 | 0.447 | 0.452 | 0.254 | 0.291 | 0.289 | 0.169
3 | NCI-H1355 | 0.981 | 1.31 | 1.25 | 1.12 | 1.19 | 1.2 | 1.16 | 0.991 | 1.03 | 0.841 | 0.35 | 0.349 | 0.355 | 0.325 | 0.309 | 0.645 | 0.764 | 0.753 | 0.712
4 | NCI-H1437 | 0.539 | 0.665 | 0.603 | 0.406 | 0.322 | 0.699 | 0.989 | 0.883 | 1.01 | 0.765 | 0.574 | 0.56 | 0.619 | 0.545 | 0.574 | 0.984 | 1.08 | 1.12 | 0.92
5 | NCI-H1650 |  | 0.241 | 0.228 | 0.207 | 0.207 |  | 1.16 | 0.943 | 1.06 | 0.919 | 0.433 | 0.376 | 0.386 | 0.486 | 0.43 | 0.184 | 0.191 | 0.225 | 0.17
6 | NCI-H1651 | 0.866 | 0.914 | 1.01 | 1.02 | 0.834 | 0.878 | 0.823 | 0.851 | 0.878 | 0.826 | 0.524 | 0.675 | 0.492 | 0.594 | 0.601 | 0.712 | 0.891 | 0.852 | 0.914
7 | NCI-H1666 | 0.849 | 0.838 | 0.693 | 0.904 | 0.782 | 0.914 | 1.15 | 0.731 | 0.769 | 1.03 | 0.649 | 0.738 | 0.76 | 0.709 | 0.664 | 0.969 | 1.04 | 0.976 | 0.836
8 | NCI-H1734 | 0.852 | 0.787 | 1.04 | 0.924 | 0.545 | 0.627 | 0.703 | 0.689 | 0.634 | 0.444 | 0.508 | 0.527 | 0.492 | 0.518 | 0.431 | 0.197 | 0.19 | 0.185 | 0.178
9 | NCI-H1755 | 0.954 | 1.04 | 0.872 | 0.978 | 0.814 | 0.74 | 0.916 | 0.738 | 0.97 | 0.827 | 0.723 | 0.657 | 0.655 | 0.631 | 0.632 | 0.489 | 0.528 | 0.442 | 0.752
10 | NCI-H1915 | 0.768 | 0.993 | 1.06 | 1.11 | 0.831 | 0.806 | 1.05 | 0.828 | 0.937 | 0.65 | 0.254 | 0.255 | 0.256 | 0.257 | 0.257 | 0.71 | 0.79 | 0.784 | 0.669
11 | NCI-H1975 | 0.357 | 0.348 | 0.436 | 0.41 | 0.343 | 0.852 | 1.03 | 1.01 | 1.05 | 0.721 | 0.542 | 0.386 | 0.385 | 0.362 | 0.39 | 0.243 | 0.227 | 0.186 | 0.179
12 | NCI-H1993 | 1.03 | 1.08 | 1.08 | 1.14 | 0.979 | 0.794 | 0.922 | 0.816 | 0.776 | 0.741 | 0.593 | 0.693 | 0.663 | 0.598 | 0.547 |  | 0.941 | 0.87 | 0.724
13 | NCI-H2009 | 1.07 | 1.05 | 0.827 | 0.967 | 0.832 | 0.916 | 1.03 | 1.01 | 1.04 | 0.955 | 0.384 | 0.339 | 0.352 | 0.471 | 0.327 | 0.99 | 0.927 | 0.91 | 0.84
